The text below walks through data of patent US20240150423A1, “GLP-1 ANALOGUE-MODIFIED DIMERS WITH DIFFERENT CONFIGURATIONS, PREPARATION METHOD THEREOF, AND APPLICATION THEREOF IN TREATMENT OF TYPE II DIABETES” (Nanjing Finepeptide Biopharmaceutical Co.,Ltd, priority 2019, published 2024).

Non-standard residues stand in square brackets, D forms with d. No end group written: not given here. βAib = beta-Aib residue; Aib = CC(C)(N)C(=O)O

In the assay the test system is Normal Kunming (KM) mice. As to the kind of experiment: multiple OGTT (mOGTT): hypoglycemic duration after a single administration. The assay is classed as in vivo. Particulars: monomeric peptides, single injection at the same dose (1.126 nmol), subcutaneous. In outline:
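Tail blood glucose was followed by meter in normal KM mice after one dosing and glucose gavage, at 0, 10, 20, 40, 60 and 120 min. Measurement stopped when the treated mean rose above the NaCl group twice; the period before that is the effective duration.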

As for “His-aAib-Glu-Gly-Thr-Phe-Thr-Ser-Asp-Val-Cys-Ser-Tyr-Leu-Glu-Gly-Gln-Ala-Ala-Lys[N-ϵ-(N-α-oleoyl-L-γ-glutamyl)]-Glu-Phe-Ile-Ala-Trp-Leu-Val-Arg-Gly-Arg-Gly-NH2 (HXEGTFTSDVCSYLEGQAAXEFIAWLVRGRG; αAib; oleoyl-γ-glutamyl on Lys; C-terminal amide; Sequence is synthesized; (2)..(2) Xaa is aAib; (20)..(20) Xaa is 26Lys[N-e-(N-a-oleoyl-L-g-glutamyl)]; (31)..(31) N-terminal) [G2 series 13]”, the “Hypoglycemic” value was 7 days. With “His-aAib-Glu-Gly-Thr-Phe-Thr-Ser-Asp-Val-Cys-Ser-Tyr-Leu-Glu-Gly-Gln-Ala-Ala-Lys[N-ϵ-(N-α-oleoyl-L-γ-glutamyl)]-Glu-Phe-Ile-Ala-Trp-Leu-Val-Arg-Gly-Arg-Gly-OH (HXEGTFTSDVCSYLEGQAAXEFIAWLVRGRG; αAib; oleoyl-γ-glutamyl on Lys; C-terminal acid; Sequence is synthesized; (2)..(2) Xaa is aAib; (20)..(20) Xaa is 26Lys[N-e-(N-a-oleoyl-L-g-glutamyl)]; (31)..(31) C-terminal) [G2 series 14]” the figure was 4 days; with “His-aAib-Glu-Gly-Thr-Phe-Thr-Ser-Asp-Val-Ser-Cys--Tyr-Leu-Glu-Gly-Gln-Ala-Ala-Lys[N-ϵ-(N-α-oleoyl-L-γ-glutamyl)]-Glu-Phe-Ile-Ala-Trp-Leu-Val-Arg-Gly-Arg-Gly-NH2 (HXEGTFTSDVSCYLEGQAAXEFIAWLVRGRG; Aib; oleoyl-gamma-Glu on Lys; C-terminal amide; Sequence is synthesized; (2)..(2) Xaa is aAib; (20)..(20) Xaa is 26Lys[N-e-(N-a-oleoyl-L-g-glutamyl)]; (31)..(31) N-terminal) [G6 series 47]”, 8 days. The same measure for “His-aAib-Glu-Gly-Thr-Phe-Thr-Ser-Asp-Val-Ser-Cys-Tyr-Leu-Glu-Gly-Gln-Ala-Ala-Lys-Glu-Phe-Ile-Ala-Trp-Leu-Val-Arg-aAib-Arg-NH2 (H[Aib]EGTFTSDVSCYLEGQAAKEFIAWLVR[Aib]R-NH2; also: disulfide-linked homodimer via Cys) [G7 series 51]”: 3 days; for “His-aAib-Glu-Gly-Thr-Phe-Thr-Ser-Asp-Val-Ser-Cys-Tyr-Leu-Glu-Gly-Gln-Ala-Ala-Lys-Glu-Phe-Ile-Ala-Trp-Leu-Val-Arg-aAib-Arg-OH (H[Aib]EGTFTSDVSCYLEGQAAKEFIAWLVR[Aib]R-OH; also: disulfide-linked homodimer via Cys) [G7 series 52]”: 1 days. Regarding “His-aAib-Glu-Gly-Thr-Phe-Thr-Ser-Asp-Val-Ser-Cys-Tyr-Leu-Glu-Gly-Gln-Ala-Ala-Lys-Glu-Phe-Ile-Ala-Trp-Leu-Val-Lys-aAib-Arg-NH2 (H[Aib]EGTFTSDVSCYLEGQAAKEFIAWLVK[Aib]R-NH2; also: disulfide-linked homodimer via Cys) [G7 series 53]”, the “Hypoglycemic” value turned out to be 3 days. For “His-aAib-Glu-Gly-Thr-Phe-Thr-Ser-Asp-Val-Ser-Cys-Tyr-Leu-Glu-Gly-Gln-Ala-Ala-Lys[N-ϵ-(N-α-Palmitoyl)]-Glu-Phe-Ile-Ala-Trp-Leu-Val-Arg-Gly-Arg-Gly-NH2 (HXEGTFTSDVSCYLEGQAAXEFIAWLVRGRG; not fully specified; Aib; palmitoyl on Lys side chain; C-terminal amide; Sequence is synthesized; (2)..(2) Xaa is aAib; (20)..(20) Xaa is 26Lys[N-e-(N-a-palmitoyl-L-g-glutamyl)]; (31)..(31) N-terminal) [G4 series 37]”, the “Hypoglycemic” value was 7 days. The same measure for “His-aAib-Glu-Gly-Thr-Phe-Thr-Ser-Asp-Val-Ser-Cys-Tyr-Leu-Glu-Gly-Gln-Ala-Ala-Lys[N-ϵ-(N-α-Palmitoyl-L-γ-glutamyl)]-Glu-Phe-Ile-Ala-Trp-Leu-Val-Arg-Gly-Arg-Gly-NH2 (HXEGTFTSDVSCYLEGQAAXEFIAWLVRGRG; Aib; palmitoyl-gamma-Glu on Lys; C-terminal amide; Sequence is synthesized; (2)..(2) Xaa is aAib; (20)..(20) Xaa is 26Lys[N-e-(N-a-palmitoyl-L-g-glutamyl)]; (31)..(31) N-terminal) [G6 series 48]”: 7 days; for “His-aAib-Glu-Gly-Thr-Phe-Thr-Ser-Asp-Val-Ser-Cys-Tyr-Leu-Glu-Gly-Gln-Ala-Ala-Lys[N-ϵ-(N-α-Palmitoyl-L-γ-glutamyl)]-Glu-Phe-Ile-Ala-Trp-Leu-Val-Arg-Gly-Arg-Gly-OH (HXEGTFTSDVSCYLEGQAAXEFIAWLVRGRG; Aib; palmitoyl-gamma-Glu on Lys; C-terminal acid; Sequence is synthesized; (2)..(2) Xaa is aAib; (20)..(20) Xaa 26Lys[N-e-(N-a-palmitoyl-L-g-glutamyl)]; (31)..(31) C-terminal) [G6 series 45]”: 4 days. The same measure for “His-aAib-Glu-Gly-Thr-Phe-Thr-Ser-Asp-Val-Ser-Cys-Tyr-Leu-Glu-Gly-Gln-Ala-Ala-Lys[N-ϵ-(N-α-Palmitoyl-L-γ-glutamyl)]-Glu-Phe-Ile-Ala-Trp-Leu-Val-Lys[N-ϵ-(N-α-Palmitoyl-L-γ-glutamyl)]-Gly-Arg-Gly-NH2 (HXEGTFTSDVSCYLEGQAAXEFIAWLVXGRG; Aib; two palmitoyl-gamma-Glu on Lys; C-terminal amide; Sequence is synthesized; (2)..(2) Xaa is aAib; (20)..(20) Xaa is 26Lys[N-e-(N-a-palmitoyl-L-g-glutamyl)]; (28)..(28) Xaa is 26Lys[N-e-(N-a-palmitoyl-L-g-glutamyl)]; (31)..(31) N-terminal) [G5 series 42]”: 3 days; for “His-aAib-Glu-Gly-Thr-Phe-Thr-Ser-Asp-Val-Ser-Cys-Tyr-Leu-Glu-Gly-Gln-Ala-Ala-Lys[N-ϵ-(N-α-oleoyl)]-Glu-Phe-Ile-Ala-Trp-Leu-Val-Arg-Gly-Arg-Gly-NH2 (HXEGTFTSDVSCYLEGQAAXEFIAWLVRGRG; not fully specified; Aib; oleoyl on Lys side chain; C-terminal amide; Sequence is synthesized; (2)..(2) Xaa is aAib; (20)..(20) Xaa is 26Lys[N-e-(N-a-oleoyl-L-g-glutamyl)]; (31)..(31) N-terminal) [G4 series 36]”: 8 days. With “His-aAib-Glu-Gly-Thr-Phe-Thr-Ser-Asp-Val-Ser-Cys-Tyr-Leu-Glu-Gly-Gln-Ala-Ala-Lys[N-ϵ-(N-α-oleoyl-L-γ-glutamyl)]-Glu-Phe-Ile-Ala-Trp-Leu-Val-Arg-Gly-Arg-Gly-OH (HXEGTFTSDVSCYLEGQAAXEFIAWLVRGRG; Aib; oleoyl-gamma-Glu on Lys; C-terminal acid; Sequence is synthesized; (2)..(2) Xaa is aAib; (20)..(20) Xaa is LyO; (31)..(31) C-terminal) [G6 series 46]” the figure was 5 days. For the substance “His-βAib-Glu-Gly-Thr-Phe-Thr-Cys-Asp-Val-Ser-Ser-Tyr-Leu-Glu-Gly-Gln-Ala-Ala-Lys-Glu-Phe-Ile-Ala-Trp-Leu-Val-Arg-βAib-Arg-NH2 (H[βAib]EGTFTCDVSSYLEGQAAKEFIAWLVR[βAib]R-NH2; also: disulfide-linked homodimer via Cys) [G8 series 67]”, the “Hypoglycemic” value was determined as 2 days.
